{
  "source": "patent US10406111B2",
  "about": "“Gold/lanthanide nanoparticle conjugates and uses thereof” (COLORADO SCHOOL OF MINES, priority 2009, dated 2019)",
  "test": "In vitro MRI relaxation properties (relaxivity)",
  "excerpt": "In vitro MRI of GdNPs and Polymer Modified Gd NPs. In order to provide information about the clinical imaging viability of the polymer modified gold/Gd nanoparticles, as a positive contrast agent, in vitro MRI was employed to determine relaxation properties of the unmodified and polymer modified gold/Gd nanoparticles. Table 1 compares the MRI longitudinal and transverse relaxivities, r1 and r2, respectively, of PNIPAM-modified gold/Gd nanoparticles and gold/Gd unmodified nanoparticles to the clinically employed contrasts agents, gadopentetate dimeglumine (Magnevist®) and gadobenate dimeglumine (Multihance®). […] By taking advantage of these properties, novel theragnostic polymer-modified gold/Gd nanoparticles could be produced and exploited as contrast agents for conventional T1 MR imaging.",
  "data": [
    {"smiles": "CNC[C@H](O)[C@@H](O)[C@H](O)[C@H](O)CO.CNC[C@H](O)[C@@H](O)[C@H](O)[C@H](O)CO.O=C([O-])CN(CCN(CC(=O)[O-])CC(=O)O)CCN(CC(=O)[O-])CC(=O)O.[Gd+3]", "note": "[Magnevist ®, gadopentetate dimeglumine]", "values": [
      {"measurement": "r1 (MRI longitudinal relaxivity)", "result": 6.95, "unit": "mM⁻¹ s⁻¹"}
    ]},
    {"smiles": "CNC[C@H](O)[C@@H](O)[C@H](O)[C@H](O)CO.CNC[C@H](O)[C@@H](O)[C@H](O)[C@H](O)CO.O=C([O-])CN(CCN(CC(=O)[O-])CC(=O)O)CCN(CC(=O)O)C(COCc1ccccc1)C(=O)[O-].[Gd+3]", "note": "(centres unmarked) [Multihance ®, gadobenate dimeglumine]", "values": [
      {"measurement": "r1 (MRI longitudinal relaxivity)", "result": 17.7, "unit": "mM⁻¹ s⁻¹"}
    ]}
  ]
}
